Measured values from US20220251116A1, “ALKYLBORONIC ACIDS AS ARGINASE INHIBITORS” (Guangdong Newopp Biopharmaceuticals Co., Ltd., priority 2019, published 2022).
Structures can show the parent of a compound that is named as a salt.

Each molecule was assayed against T1, recombinant human arginase 1 (Homo sapiens, UniProt P05089) (assay: Arginase inhibitory activity test, enzymatic assay based on urea measurement (Arg 1);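 further: enzyme incubated with L-arginine substrate and compound at 37 °C for 120 min, urea product detected colorimetrically by absorbance at 450 nm, background from wells lacking enzyme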).
T1 sequence (P05089 1-322): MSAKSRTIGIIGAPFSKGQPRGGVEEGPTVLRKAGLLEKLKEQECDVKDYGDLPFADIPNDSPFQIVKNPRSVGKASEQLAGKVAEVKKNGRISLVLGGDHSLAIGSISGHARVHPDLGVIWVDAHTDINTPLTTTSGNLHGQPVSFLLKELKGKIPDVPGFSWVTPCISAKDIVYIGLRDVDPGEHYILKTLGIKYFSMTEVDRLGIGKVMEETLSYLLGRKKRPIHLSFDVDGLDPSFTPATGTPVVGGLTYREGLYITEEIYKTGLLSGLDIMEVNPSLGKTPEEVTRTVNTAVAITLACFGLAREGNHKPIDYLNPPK
Protocol: An enzymatic assay with recombinant human arginases 1 or 2 was used to measure inhibitory activity of the compounds. The assay is based on urea measurement, which is a product of L-arginine enzymatic degradation.
Briefly, arginase and the substrate solution containing L-arginine were incubated in the absence or presence of varying concentrations of compounds at 37° C. for 120 min. For the background correction, only the substrate solution was added without arginase. The urea detection reagent from QuantiChrome™ Urea assay kit (BioAssay Systems, CA) was added to develop the color product. After 60 min at room temperature, the absorbance was measured at 450 nm with CLARIOstar (BMG LABTECH). Urea was used as the standard.

Row | SMILES | IC50 [µM]
1 | NC(=O)CNS(=O)(=O)N1C[C@H](CCCB(O)O)[C@](N)(C(=O)O)C1 (racemic) [Example 7, (rac)trans-3-amino-1-(N-(2-amino-2-oxoethyl)sulfamoyl)-4-(3-boronopropyl)pyrrolidine-3-carboxylic acid, (1:1) 2,2,2-trifluoroacetic acid salt] | 1 to 10
2 | NCC(=O)NS(=O)(=O)N1C[C@H](CCCB(O)O)[C@](N)(C(=O)O)C1 (racemic) [Example 8, (rac)trans-3-amino-4-(3-boronopropyl)-1-(N-glycylsulfamoyl)pyrrolidine-3-carboxylic acid, (1:2) 2,2,2-trifluoroacetic acid salt] | 0.1 to 1
3 | CC(C)(O)CNS(=O)(=O)N1C[C@H](CCCB(O)O)[C@](N)(C(=O)O)C1 (racemic) [Example 9, (rac)trans-3-amino-4-(3-boronopropyl)-1-(N-(2-hydroxy-2-methylpropyl)sulfamoyl)pyrrolidine-3-carboxylic acid, (1:1) 2,2,2-trifluoroacetic acid salt] | 0.1 to 1
4 | N[C@@]1(C(=O)O)CN(S(=O)(=O)NCCO)C[C@@H]1CCCB(O)O (racemic) [Example 10, (rac)trans-3-amino-4-(3-boronopropyl)-1-(N-(2-hydroxyethyl)sulfamoyl)pyrrolidine-3-carboxylic acid (1:1), 2,2,2-trifluoroacetic acid salt] | 0.1 to 1
5 | N[C@@H]1C[C@H]1NS(=O)(=O)N1C[C@H](CCCB(O)O)[C@](N)(C(=O)O)C1 (racemic) [Example 15, (3R,4S)-3-amino-1-(N-((rac)trans-2-aminocyclopropyl)sulfamoyl)-4-(3-boronopropyl)pyrrolidine-3-carboxylic acid (diastereomers), (1:2) 2,2,2-trifluoroacetic acid salt] | < 0.1
6 | N[C@@H]1CCCCC1NS(=O)(=O)N1C[C@H](CCCB(O)O)[C@](N)(C(=O)O)C1 (mixture of isomers) [Example 20, (rac)trans-3-amino-1-(N-((rac)cis-2-aminocyclohexyl)sulfamoyl)-4-(3-boronopropyl)pyrrolidine-3-carboxylic acid (diastereomers), 2,2,2-trifluoroacetic acid salt (1:2)] | > 10
7 | N[C@H]1CCCCC1NS(=O)(=O)N1C[C@H](CCCB(O)O)[C@](N)(C(=O)O)C1 (mixture of isomers) [Example 22, (rac)-trans-3-amino-1-(N-(trans-2-aminocyclohexyl)sulfamoyl)-4-(3-boronopropyl)pyrrolidine-3-carboxylic acid (diastereomers), 2,2,2-trifluoroacetic acid salt (1:2)] | 0.1 to 1
8 | NC1CC(NS(=O)(=O)N2C[C@H](CCCB(O)O)[C@](N)(C(=O)O)C2)C1 (mixture of isomers) [Example 24, (rac)-trans-3-amino-1-(N-((rac)trans-3-aminocyclobutyl)sulfamoyl)-4-(3-boronopropyl)pyrrolidine-3-carboxylic acid compound with 2,2,2-trifluoroacetic acid (1:2)] | < 0.1

Next, values leading:

Row | IC50 [µM] | SMILES
9 | 1 to 10 | CNS(=O)(=O)N1C[C@H](CCCB(O)O)[C@](N)(C(=O)O)C1 (racemic) [Example 2, (rac)trans-3-amino-4-(3-boronopropyl)-1-(N-methylsulfamoyl)pyrrolidine-3-carboxylic acid, (1:1) 2,2,2-trifluoroacetic acid salt]
10 | 1 to 10 | CC(C)C(NS(=O)(=O)N1CC(CCCB(O)O)C(N)(C(=O)O)C1)C(=O)O (racemic) [Example 11, (rac)trans-3-amino-4-(3-boronopropyl)-1-(N-((S)-1-carboxy-2-methylpropyl)sulfamoyl)pyrrolidine-3-carboxylic acid (diastereomer), (1:1) 2,2,2-trifluoroacetic acid salt]
11 | < 0.1 | NCC1(NS(=O)(=O)N2C[C@H](CCCB(O)O)[C@](N)(C(=O)O)C2)CC1 (racemic) [Example 12, (rac)trans-3-amino-1-(N-(1-(aminomethyl)cyclopropyl)sulfamoyl)-4-(3-boronopropyl)pyrrolidine-3-carboxylic acid, (1:2) 2,2,2-trifluoroacetic acid salt]
12 | 0.1 to 1 | Nc1ccccc1NS(=O)(=O)N1C[C@H](CCCB(O)O)[C@](N)(C(=O)O)C1 (racemic) [Example 13, (rac)trans-3-amino-1-(N-(2-aminophenyl)sulfamoyl)-4-(3-boronopropyl)pyrrolidine-3-carboxylic acid, (1:2) 2,2,2-trifluoroacetic acid salt]
13 | < 0.1 | C[C@H](CN)NS(=O)(=O)N1C[C@H](CCCB(O)O)[C@](N)(C(=O)O)C1 (racemic) [Example 16, (rac)trans-3-amino-1-(N-((R)-1-aminopropan-2-yl)sulfamoyl)-4-(3-boronopropyl)pyrrolidine-3-carboxylic acid (diastereomers), 2,2,2-trifluoroacetic acid salt (1:2)]
14 | < 0.1 | C[C@@H](N)CNS(=O)(=O)N1C[C@H](CCCB(O)O)[C@](N)(C(=O)O)C1 (racemic) [Example 17, (rac)trans-3-amino-1-(N-((R)-2-aminopropyl)sulfamoyl)-4-(3-boronopropyl)pyrrolidine-3-carboxylic acid (diastereomers), 2,2,2-trifluoroacetic acid salt (1:2) (Diasteromers)]
15 | 0.1 to 1 | NC1(CNS(=O)(=O)N2C[C@H](CCCB(O)O)[C@](N)(C(=O)O)C2)CC1 (racemic) [Example 19, (rac)-(trans)3-amino-1-(N-((1-aminocyclopropyl)methyl)sulfamoyl)-4-(3-boronopropyl)pyrrolidine-3-carboxylic acid, 2,2,2-trifluoroacetic acid salt (1:2)]
16 | 0.1 to 1 | NCCCNS(=O)(=O)N1C[C@H](CCCB(O)O)[C@](N)(C(=O)O)C1 (racemic) [Example 21, (rac)-trans-3-amino-1-(N-(3-aminopropyl)sulfamoyl)-4-(3-boronopropyl)pyrrolidine-3-carboxylic acid (diastereomers), 2,2,2-trifluoroacetic acid salt (1:2)]
17 | 0.1 to 1 | N[C@H]1COCC1NS(=O)(=O)N1C[C@H](CCCB(O)O)[C@](N)(C(=O)O)C1 (mixture of isomers) [Example 23, (rac)-trans-3-amino-1-(N-((rac)cis-4-aminotetrahydrofuran-3-yl)sulfamoyl)-4-(3-boronopropyl)pyrrolidine-3-carboxylic acid (diastereomers), 2,2,2-trifluoroacetic acid salt (1:2)]
18 | 0.1 to 1 | NC1CN(S(=O)(=O)N2C[C@H](CCCB(O)O)[C@](N)(C(=O)O)C2)C1 (racemic) [Example 33, (rac)-trans-3-amino-1-((3-aminoazetidin-1-yl)sulfonyl)-4-(3-boronopropyl)pyrrolidine-3-carboxylic acid, 2,2,2-trifluoroacetic acid salt (1:2)]
19 | < 0.1 | N[C@@]1(C(=O)O)CN(S(=O)(=O)NC2CNC2)C[C@@H]1CCCB(O)O (racemic) [Example 34, (rac)-trans-3-amino-1-(N-(azetidin-3-yl)sulfamoyl)-4-(3-boronopropyl)pyrrolidine-3-carboxylic acid, 2,2,2-trifluoroacetic acid salt (1:2)]
20 | 0.1 to 1 | C[C@@H](N)C(=O)NS(=O)(=O)N1C[C@H](CCCB(O)O)[C@](N)(C(=O)O)C1 (racemic) [Example 35, (rac)-trans-1-(N-alanylsulfamoyl)-3-amino-4-(3-boronopropyl)pyrrolidine-3-carboxylic acid, 2,2,2-trifluoroacetic acid salt (1:2)]
